This note sets out measurements from BindingDB's records for doi:10.7270/Q23N21VG (Nmmlsc, 2009).

The target in this experiment is T1, GTPase KRas [1-37] (Homo sapiens, UniProt G3V5T7).
T1 construct: 1-37
Nature of the experiment: activated mutant Ras nucleotide binding blockade – biochemical, additional analogs, multiplex flow cytometry, Ki, SAR follow-up (AID 2043). (In general: Flow cytometry measures light scatter and fluorescence of single cells or particles in a stream.)

T1 sequence (G3V5T7 whole entry): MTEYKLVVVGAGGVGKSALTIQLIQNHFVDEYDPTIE

As usually defined, the EC50 is the midpoint of the concentration-response curve. Low values mean greater potency, high ones weaker potency. Consider `O=C1Nc2c(Cl)cccc2C1=C1Nc2ccccc2C1=O`, for which the EC50 was > 30 µM.

On to `O=C1Nc2c(Br)cccc2C1=C1Nc2ccccc2C1=O`, for which the EC50 was > 30 µM.

Regarding `O=C1Nc2c(F)cccc2C1=C1Nc2ccccc2C1=O`, the EC50 was > 30 µM.

Regarding `O=C1NC(=O)/C(=C2/C(=O)Nc3ccccc32)N1`, the EC50 was > 30 µM.

In the case of `O=C1Nc2ccc(Br)cc2C1=C1Nc2ccccc2C1=O`, the EC50 was > 30 µM.

Take `O=C1Nc2ccccc2/C1=C1/Nc2ccccc2C1=O` [2-[(3Z)-2-oxo-2,3-dihydro-1H-indol-3-ylidene]-2,3-dihydro-1H-indol-3-one]: the EC50 was > 30 µM.

For the molecule `O=C1N=c2ccccc2=C1c1[nH]c2ccccc2c1NO` [3-[3-(hydroxyamino)-1H-indol-2-yl]-2-indolone], the EC50 was > 30 µM.

Regarding `O=C1N=c2ccc(Br)cc2=C1c1[nH]c2ccccc2c1NO` [5-bromanyl-3-[3-(oxidanylamino)-1H-indol-2-yl]indol-2-one], the EC50 is > 30 µM.

In the case of `O=C1N=c2c(Br)cccc2=C1c1[nH]c2ccccc2c1NO` [7-bromanyl-3-[3-(oxidanylamino)-1H-indol-2-yl]indol-2-one], the EC50 was > 30 µM.

As to `O=C1N=c2c(Cl)cccc2=C1c1[nH]c2ccccc2c1NO` [7-chloro-3-[3-(hydroxyamino)-1H-indol-2-yl]-2-indolone], the EC50 is > 30 µM.

Turning to `O=C1N=c2c(F)cccc2=C1c1[nH]c2ccccc2c1NO` [7-fluoro-3-[3-(hydroxyamino)-1H-indol-2-yl]-2-indolone], the EC50 is > 30 µM.

Regarding `O=C1NC(=S)N/C1=C1\C(=O)Nc2ccccc21` [(3Z)-3-(5-oxo-2-sulfanylideneimidazolidin-4-ylidene)-1H-indol-2-one], the EC50 was > 30 µM.
